This is an account of results in ChEMBL document CHEMBL2375335, “Discovery of a novel series of non-nucleoside thumb pocket 2 HCV NS5B polymerase inhibitors” (Bioorg Med Chem Lett, 2013).

Data set [1] can be described thus: Inhibition of HCV genotype 1b isolate BK NS5B Cdelta21 RNA dependent RNA polymerase using [3H]UTP as substrate incubated for 25 mins prior to substrate addition measured after 120 mins by scintillation proximity assay. Set-up: species or system Hepatitis C virus (isolate BK). On the technique in general: Scintillation proximity formats need no separation of bound from free tracer.

In data set [2] the target is RNA-directed RNA polymerase (Hepacivirus hominis, UniProt O39930, M414T). The data set can be described thus: Inhibition of HCV genotype 1b isolate BK NS5B Cdelta21 RNA dependent RNA polymerase M414T mutant using [3H]UTP as substrate incubated for 25 mins prior to substrate addition measured after 120 mins by scintillation proximity assay. Further details: species or system Hepatitis C virus (isolate BK).
Sequence of RNA-directed RNA polymerase (Hepacivirus hominis, UniProt O39930, M414T) (O39930 entry or part of it M414T): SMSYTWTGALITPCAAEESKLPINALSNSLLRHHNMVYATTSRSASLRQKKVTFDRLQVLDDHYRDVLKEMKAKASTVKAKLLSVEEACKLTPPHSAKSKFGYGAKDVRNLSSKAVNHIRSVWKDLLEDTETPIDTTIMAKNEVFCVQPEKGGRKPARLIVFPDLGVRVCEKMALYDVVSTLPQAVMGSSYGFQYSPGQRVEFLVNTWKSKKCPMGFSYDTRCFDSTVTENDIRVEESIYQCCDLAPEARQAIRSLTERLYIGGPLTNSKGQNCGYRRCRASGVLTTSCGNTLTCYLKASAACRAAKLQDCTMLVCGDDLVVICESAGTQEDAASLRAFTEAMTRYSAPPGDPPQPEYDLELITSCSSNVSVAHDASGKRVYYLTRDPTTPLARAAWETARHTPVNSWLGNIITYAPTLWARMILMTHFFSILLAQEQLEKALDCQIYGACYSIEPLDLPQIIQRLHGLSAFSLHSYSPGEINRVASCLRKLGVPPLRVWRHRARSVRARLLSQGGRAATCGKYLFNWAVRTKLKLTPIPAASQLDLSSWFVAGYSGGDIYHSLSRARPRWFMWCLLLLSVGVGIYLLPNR

Another data set has as its target Cytochrome P450 2D6 (Homo sapiens, UniProt P10635). Nature of the data set: Inhibition of CYP2D6 (unknown origin). Type of data set: ADME.
A further data set has as its target Cytochrome P450 2C19 (Homo sapiens, UniProt P33261). Nature of the data set: Inhibition of CYP2C19 (unknown origin). The format is ADME.
The nature of data set [3]: Permeability from apical to basal side of human Caco2 cells at pH 7.4. Type of data set: ADME, cell-based. The note with it: Caco-2, pH 7.4, read-out: permeability. (In general: Caco-2 monolayers are a common model of the intestinal barrier.)
Data set [4] is described as follows: Inhibition of calf thymus RNA polymerase 2. Set-up: species or system Bos taurus.
Data set [5] deals with RNA-directed RNA polymerase (Hepacivirus hominis, UniProt O39930, P495S). Nature of the data set: Inhibition of HCV genotype 1b isolate BK NS5B Cdelta21 RNA dependent RNA polymerase P495S mutant using [3H]UTP as substrate incubated for 25 mins prior to substrate addition measured after 120 mins by scintillation proximity assay. Set-up: species or system Hepatitis C virus (isolate BK).
Sequence of RNA-directed RNA polymerase (Hepacivirus hominis, UniProt O39930, P495S) (O39930 entry or part of it P495S): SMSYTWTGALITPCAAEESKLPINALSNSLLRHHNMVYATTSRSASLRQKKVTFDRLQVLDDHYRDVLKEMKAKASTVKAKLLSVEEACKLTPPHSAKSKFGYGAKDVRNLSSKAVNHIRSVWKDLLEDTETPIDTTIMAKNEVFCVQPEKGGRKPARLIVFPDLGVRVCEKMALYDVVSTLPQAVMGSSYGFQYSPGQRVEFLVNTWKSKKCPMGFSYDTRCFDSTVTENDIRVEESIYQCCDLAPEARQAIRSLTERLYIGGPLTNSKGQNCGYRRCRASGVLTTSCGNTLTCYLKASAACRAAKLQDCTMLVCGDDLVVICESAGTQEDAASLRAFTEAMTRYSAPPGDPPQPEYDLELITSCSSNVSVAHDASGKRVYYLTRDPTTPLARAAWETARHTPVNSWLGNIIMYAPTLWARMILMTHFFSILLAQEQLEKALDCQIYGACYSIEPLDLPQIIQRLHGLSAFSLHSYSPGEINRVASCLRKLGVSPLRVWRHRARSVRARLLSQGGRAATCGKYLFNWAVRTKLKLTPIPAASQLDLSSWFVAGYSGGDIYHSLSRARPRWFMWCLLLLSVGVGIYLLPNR

The target in a further data set is Cytochrome P450 3A4 (Homo sapiens, UniProt P08684). The data set can be described thus: Inhibition of CYP3A4 (unknown origin). Type of data set: ADME.
Sequence of Cytochrome P450 3A4 (P08684 whole entry): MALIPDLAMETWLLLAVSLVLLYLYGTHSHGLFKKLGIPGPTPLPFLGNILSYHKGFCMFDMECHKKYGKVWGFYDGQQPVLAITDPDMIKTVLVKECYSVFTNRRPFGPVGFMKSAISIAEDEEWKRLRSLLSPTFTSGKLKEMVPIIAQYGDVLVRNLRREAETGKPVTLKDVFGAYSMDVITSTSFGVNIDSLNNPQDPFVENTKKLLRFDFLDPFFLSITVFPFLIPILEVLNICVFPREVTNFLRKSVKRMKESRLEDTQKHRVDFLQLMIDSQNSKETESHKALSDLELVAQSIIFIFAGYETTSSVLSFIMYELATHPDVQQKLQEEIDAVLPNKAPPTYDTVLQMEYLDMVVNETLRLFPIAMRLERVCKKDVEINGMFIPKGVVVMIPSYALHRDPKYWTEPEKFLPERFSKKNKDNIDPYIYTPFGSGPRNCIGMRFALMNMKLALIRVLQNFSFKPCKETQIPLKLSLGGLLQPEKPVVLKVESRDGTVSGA
Data set [6] can be described thus: Inhibition of HCV genotype 1b isolate BK NS5B Cdelta21 RNA dependent RNA polymerase L419M mutant using [3H]UTP as substrate incubated for 25 mins prior to substrate addition measured after 120 mins by scintillation proximity assay. Further details: species or system Hepatitis C virus (isolate BK).
Data set [7] concerns Hepatitis C virus (isolate BK). Nature of the data set: Ratio of IC50 for HCV genotype 1b isolate BK NS5B Cdelta21 RNA dependent RNA polymerase L419M mutant to IC50 for HCV genotype 1b isolate BK wild type NS5B Cdelta21 RNA dependent RNA polymerase.
Data set [8] can be described thus: Solubility of the compound in buffer after 24 hrs at pH 7.2 by shake flask method. Type of data set: physicochemical.
Data set [9] deals with RNA-directed RNA polymerase (Hepacivirus hominis, UniProt O39930, M423T). Nature of the data set: Inhibition of HCV genotype 1b isolate BK NS5B Cdelta21 RNA dependent RNA polymerase M423T mutant using [3H]UTP as substrate incubated for 25 mins prior to substrate addition measured after 120 mins by scintillation proximity assay. Further details: species or system Hepatitis C virus (isolate BK).
Sequence of RNA-directed RNA polymerase (Hepacivirus hominis, UniProt O39930, M423T) (O39930 entry or part of it M423T): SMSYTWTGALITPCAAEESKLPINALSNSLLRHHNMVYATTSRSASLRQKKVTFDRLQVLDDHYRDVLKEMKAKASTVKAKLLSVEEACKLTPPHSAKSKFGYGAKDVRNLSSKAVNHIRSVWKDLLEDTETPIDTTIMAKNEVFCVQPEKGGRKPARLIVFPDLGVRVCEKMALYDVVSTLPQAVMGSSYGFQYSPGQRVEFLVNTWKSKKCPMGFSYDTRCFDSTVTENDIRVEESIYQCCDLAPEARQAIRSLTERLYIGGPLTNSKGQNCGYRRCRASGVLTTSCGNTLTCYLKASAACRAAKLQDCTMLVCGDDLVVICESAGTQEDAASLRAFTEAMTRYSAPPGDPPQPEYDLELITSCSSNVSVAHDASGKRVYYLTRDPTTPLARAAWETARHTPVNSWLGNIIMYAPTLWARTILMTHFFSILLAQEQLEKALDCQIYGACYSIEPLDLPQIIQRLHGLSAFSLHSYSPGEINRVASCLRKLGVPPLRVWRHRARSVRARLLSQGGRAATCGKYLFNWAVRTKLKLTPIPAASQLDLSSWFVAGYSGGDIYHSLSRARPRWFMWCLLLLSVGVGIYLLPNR

A further data set has as its target T1, Cytochrome P450 1A2 (Homo sapiens, UniProt P05177).
T1 sequence (P05177 whole entry): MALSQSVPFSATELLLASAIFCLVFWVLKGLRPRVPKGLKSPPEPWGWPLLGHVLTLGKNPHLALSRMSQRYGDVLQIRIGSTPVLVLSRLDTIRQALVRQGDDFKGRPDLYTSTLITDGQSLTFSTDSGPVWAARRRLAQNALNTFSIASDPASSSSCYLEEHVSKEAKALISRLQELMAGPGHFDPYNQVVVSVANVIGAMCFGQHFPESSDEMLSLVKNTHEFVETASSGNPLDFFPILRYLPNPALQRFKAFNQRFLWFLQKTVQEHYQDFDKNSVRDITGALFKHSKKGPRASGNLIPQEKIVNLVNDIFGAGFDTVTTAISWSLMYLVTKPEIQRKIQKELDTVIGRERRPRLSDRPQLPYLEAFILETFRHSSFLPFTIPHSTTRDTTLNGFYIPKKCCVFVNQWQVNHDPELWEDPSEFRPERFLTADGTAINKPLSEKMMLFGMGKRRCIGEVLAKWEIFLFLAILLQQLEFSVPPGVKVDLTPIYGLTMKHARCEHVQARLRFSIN
The data set can be described thus: Inhibition of CYP1A2 (unknown origin). Type of data set: ADME.

Data set [10] can be described thus: Half life in human liver microsomes at 10 uM. The format is ADME, Microsome. A general note: Microsomes from liver hold many membrane-bound enzymes, among them those of drug oxidation.
A further data set has as its system Hepatitis C virus. Nature of the data set: Antiviral activity against HCV genotype 1b infected in HuH7 cells assessed as inhibition of viral replication after 48 hrs by RT-PCR analysis. Type of data set: functional, organism-based. The note with it: Hepacivirus hominis, Huh-7.
The target of the next data set is Cytochrome P450 2C9 (Homo sapiens, UniProt P11712). The data set can be described thus: Inhibition of CYP2C9 (unknown origin). The format is ADME.
Sequence of Cytochrome P450 2C9 (P11712 whole entry): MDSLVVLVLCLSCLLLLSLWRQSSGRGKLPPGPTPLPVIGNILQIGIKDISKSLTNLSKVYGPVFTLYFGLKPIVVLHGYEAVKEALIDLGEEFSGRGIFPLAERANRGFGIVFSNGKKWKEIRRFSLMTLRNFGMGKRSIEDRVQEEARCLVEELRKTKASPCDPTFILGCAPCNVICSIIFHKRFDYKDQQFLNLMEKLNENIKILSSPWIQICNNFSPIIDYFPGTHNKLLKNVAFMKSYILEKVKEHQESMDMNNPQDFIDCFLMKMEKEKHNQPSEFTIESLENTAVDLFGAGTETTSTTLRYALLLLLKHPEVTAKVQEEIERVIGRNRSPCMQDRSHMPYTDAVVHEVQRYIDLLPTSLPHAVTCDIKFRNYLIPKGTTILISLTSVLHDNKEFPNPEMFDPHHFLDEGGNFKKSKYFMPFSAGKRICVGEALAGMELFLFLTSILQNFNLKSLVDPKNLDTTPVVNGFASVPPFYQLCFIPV

What is called IC50 is the point on the concentration scale where inhibition reaches its midpoint. Low values mean greater potency, high ones weaker potency. One may read the solubility (thermodynamic) as the concentration in solution at equilibrium with solid. One may read the half-life as the time in which the quantity being followed falls by half. Low values mean rapid decline, high ones slow decline.

The source made the active and inactive calls. The calls are words filed in the database; no cut-off is given here.

Sequence of Cytochrome P450 2D6 (P10635 whole entry): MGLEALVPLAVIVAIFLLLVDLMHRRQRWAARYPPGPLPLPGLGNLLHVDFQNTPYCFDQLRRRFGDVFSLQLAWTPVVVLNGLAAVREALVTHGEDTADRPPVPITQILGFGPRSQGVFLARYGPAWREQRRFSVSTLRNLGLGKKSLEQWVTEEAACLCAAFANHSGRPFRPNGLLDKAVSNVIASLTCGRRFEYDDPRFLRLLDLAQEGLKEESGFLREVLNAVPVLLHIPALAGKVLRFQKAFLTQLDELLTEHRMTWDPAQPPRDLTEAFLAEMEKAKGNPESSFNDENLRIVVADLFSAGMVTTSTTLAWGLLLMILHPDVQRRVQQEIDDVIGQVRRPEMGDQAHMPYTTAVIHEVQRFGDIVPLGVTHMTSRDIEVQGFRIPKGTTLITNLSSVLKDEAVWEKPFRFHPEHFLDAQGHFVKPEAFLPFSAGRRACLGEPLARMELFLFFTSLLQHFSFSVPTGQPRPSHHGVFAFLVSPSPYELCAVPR
Sequence of Cytochrome P450 2C19 (P33261 whole entry): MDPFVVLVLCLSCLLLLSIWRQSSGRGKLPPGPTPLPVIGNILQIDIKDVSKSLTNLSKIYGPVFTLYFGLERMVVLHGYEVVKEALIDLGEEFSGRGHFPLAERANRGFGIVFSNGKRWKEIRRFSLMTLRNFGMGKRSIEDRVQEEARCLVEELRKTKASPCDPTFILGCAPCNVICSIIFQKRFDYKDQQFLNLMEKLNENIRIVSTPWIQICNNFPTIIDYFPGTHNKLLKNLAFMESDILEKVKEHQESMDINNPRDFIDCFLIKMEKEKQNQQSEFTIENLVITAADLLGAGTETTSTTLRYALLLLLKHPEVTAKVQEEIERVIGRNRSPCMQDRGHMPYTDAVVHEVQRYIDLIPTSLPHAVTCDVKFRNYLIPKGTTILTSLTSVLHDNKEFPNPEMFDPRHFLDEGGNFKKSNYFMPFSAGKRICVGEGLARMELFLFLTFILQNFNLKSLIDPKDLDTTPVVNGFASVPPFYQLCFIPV

`O=C(O)c1cc(Oc2ccccc2)ccc1NS(=O)(=O)c1ccc(Br)s1` yielded an IC50 in data set [1] of 0.55 µM.
With `O=C(O)c1ccc(Cl)cc1NS(=O)(=O)c1cc(Cl)c(Cl)cc1Cl`, in data set [1], it took 11 µM to reach half-maximal inhibition (IC50).
Still for that read-out and setting: under `O=C(O)c1cc(Br)ccc1NS(=O)(=O)c1ccccc1` stands 43 µM.
With `O=C(O)c1cc(Oc2ccccc2)ccc1NS(=O)(=O)c1ccc(Br)cc1F`, the IC50 in data set [2] was 52 nM; in [1] it was 0.11 µM; against Cytochrome P450 2D6, more than 30 µM; against Cytochrome P450 2C19 it was 1.1 µM; in data set [4], more than 100 µM; in [5], 93 nM. For the same compound, the IC50 at Cytochrome P450 3A4 is 26 µM; in data set [6], 1800 nM; in [9] it was 200 nM; at Cytochrome P450 1A2 it was more than 30 µM; at Cytochrome P450 2C9 it was 1.1 µM. Also, the Papp A→B in data set [3] was less than 0.1 ×10⁻⁶ cm/s. The Ratio IC50 in [7] was found to be 15. The compound also came in with a thermodynamic solubility at 24 h in data set [8] of more than 900 µg/mL. Also, the half-life at 10 µM in [10] was 27 min. Further, the result with Hepatitis C virus was inactive.
In [1], `O=C(O)c1cc(Br)ccc1NS(=O)(=O)c1ccc(Cl)c(Cl)c1` displayed an IC50 of 8.4 µM.
With `Cc1cc(NS(=O)(=O)c2cc(Cl)c(Cl)cc2Cl)no1`, the IC50 in data set [1] is 100 µM.
Same read-out and setting: then `O=C(O)c1cc(Br)ccc1NS(=O)(=O)c1cc(Cl)c(Cl)cc1Cl`, with 9 µM; and `O=C(O)c1ccc(-c2ccccc2)cc1NS(=O)(=O)c1ccc(Br)s1`, with 6.7 µM.
The same measure, in the same setting: then `O=C(O)c1cc(Br)ccc1NS(=O)(=O)c1ccc(Br)s1`, with 6.1 µM; and `O=C(O)c1ccc(Cl)cc1NS(=O)(=O)c1cc(F)c(Br)cc1F`, with 6.8 µM.
On the same count and under the same terms, then `O=C(O)c1cc(-c2ccccc2)ccc1NS(=O)(=O)c1ccc(Br)s1`, with 3.7 µM.
`Cc1ccc(S(=O)(=O)Nc2ccc(Oc3ccccc3)cc2C(=O)O)cc1`: the IC50 is 0.086 µM in data set [1]; more than 30 µM against Cytochrome P450 2D6; more than 30 µM on Cytochrome P450 2C19; more than 100 µM in [4]; more than 30 µM against Cytochrome P450 3A4; 1200 nM in [6]. Also, the values for the concentration for half-maximal inhibition (IC50) (in data set [9]; against Cytochrome P450 1A2; at Cytochrome P450 2C9) were 170 nM, 1.8 µM and 3 µM, respectively. The Papp A→B in [3] was determined as 2.2 ×10⁻⁶ cm/s. The Ratio IC50 in data set [7] amounted to 15. The compound also registered a thermodynamic solubility at 24 h in [8] of more than 900 µg/mL. In addition, the half-life at 10 µM in data set [10] turned out to be 11 min. The result in the data set with Hepatitis C virus was inactive.
`O=C(O)c1ccc(Oc2ccccc2)cc1NS(=O)(=O)c1ccc(Br)s1` yielded an IC50 in data set [1] of 0.61 µM.
For the compound `Cc1ccc(S(=O)(=O)Nc2cc(Oc3ccccc3)ccc2C(=O)O)cc1`, the IC50 in data set [2] is 52 nM; in data set [1], 0.072 µM; against Cytochrome P450 2D6 it was more than 30 µM; against Cytochrome P450 2C19 it was 7.9 µM; in data set [4] it was more than 100 µM; in data set [5], 77 nM. The IC50 at Cytochrome P450 3A4 is more than 30 µM; in data set [6], 1200 nM; in data set [9], 100 nM; against Cytochrome P450 1A2 it was more than 30 µM; against Cytochrome P450 2C9, 3.1 µM. In addition, the Papp A→B in [3] was determined as 2.4 ×10⁻⁶ cm/s. Moreover, the Ratio IC50 in [7] stood at 15. For the same compound, the thermodynamic solubility at 24 h in [8] was more than 700 µg/mL. Besides, the half-life at 10 µM in [10] is 17 min. In addition, the result with Hepatitis C virus was inactive.
In data set [1], `O=C(O)c1ccc(Cl)cc1NS(=O)(=O)c1ccc(Br)s1` showed an IC50 of 4.6 µM.
In data set [1], `O=C(O)c1ccccc1NS(=O)(=O)c1cc(Cl)c(Cl)cc1Cl` showed an IC50 of 26 µM.
Still for that read-out and setting: under `O=C(O)c1cc(Br)ccc1NS(=O)(=O)c1cc(F)c(Br)cc1F` stands 4.5 µM; under `O=C(O)c1ccc(Oc2ccccc2)cc1NS(=O)(=O)c1ccc(Br)cc1F`, 0.31 µM.
